US12280072B2, “Oligosaccharide compound for inhibiting intrinsic coagulation factor X-enzyme complex, and preparation method therefor and uses thereof” (Jiuzhitang Co., Ltd., priority 2017, dated 2025)

Columns and labels:
[1] = tested on: inferior vena cava thrombosis; experiment: Anti-venous thrombosis experiment (rabbit brain powder infusion plus ligation); type: in vivo, SD rats; conditions: rats, sc., experimental dose (2.5, 5.0, 10 mg/kg)
Description: Grouping and Administration: Rats were randomly divided into 8 groups with 8 animals in each group. The experimental groups and the dose of the animals in each group were (1) natural saline (NS) control group; (2) LMWH 4.0 mg/kg group; (3) A2 2.5 mg/kg group; (4) A2 group 5.0 mg/kg; (5) A2 10 mg/kg group; (6) D1 2.5 mg/kg group; (7) D1 5.0 mg/kg group; (8) D1 10 mg/kg group. The rats in each group were administered subcutaneously (sc.) into the back, and the administration volume was 1 mL/kg. The modeling experiment was performed 1 hour after administration. A New Zealand rabbit was sacrificed, and the rabbit brain was taken out immediately. Rabbit brain powder infusion was prepared according to the literature method (Thromb Haemost, 2010, 103(5): 994-1004), and stored at −20° C. for use. […] The femoral vein was injected with 2% rabbit brain powder infusion (1 mL/kg). After 20 seconds, the lower margin of the left renal vein was ligated. After the operation, the viscera was placed back into the abdominal cavity and covered with medical gauze (infiltrated with natural saline). […] The length of the thrombus was measured, and the wet weight of the thrombus was weighed and then dry weight was weighed after drying at 50° C. for 24 h. The SPSS software was used to organize and analyze the data, and the measurement data were expressed as mean±standard deviation (x±s). […]

intrinsic factor Xase = target: T1, intrinsic factor Xase (Homo sapiens, UniProt P00740); experiment: Xase inhibitory activity assay; type: biochemical; conditions: read-out: Drug concentration required to inhibit 50% of coagulation factor activity (IC50, ng/mL) Xase (converted)
T1 construct: 60 nM FIXa; purchased
T1 sequence (P00740 47-191 limits assumed): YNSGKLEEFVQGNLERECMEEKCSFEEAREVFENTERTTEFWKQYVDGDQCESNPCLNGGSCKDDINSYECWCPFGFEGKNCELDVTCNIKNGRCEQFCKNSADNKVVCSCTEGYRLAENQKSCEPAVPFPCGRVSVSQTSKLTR
T1 sequence (P00740 227-461 limits assumed): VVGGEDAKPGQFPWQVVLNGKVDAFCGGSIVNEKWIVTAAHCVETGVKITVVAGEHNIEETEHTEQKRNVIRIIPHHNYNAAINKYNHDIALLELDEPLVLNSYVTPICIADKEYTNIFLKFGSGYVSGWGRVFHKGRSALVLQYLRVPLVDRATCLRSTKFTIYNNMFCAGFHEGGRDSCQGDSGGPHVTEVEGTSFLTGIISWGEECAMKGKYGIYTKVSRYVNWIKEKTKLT
Procedure, shortened: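 Reagents mixed at 37 °C: compound with FVIII (2 IU/ml) and FIXa reagent (60 nM, with FIIa, PC/PS, Ca2+) for 2 min, then FX reagent (50 nM, with thrombin inhibitor) for 1 min, then chromogenic substrate SXa-11. OD405 slope over 7.5 min, relative to buffer control as 100%; IC50 from Hill-equation fit.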

FIIa (Homo sapiens) [2] = target: T2, FIIa (Homo sapiens); experiment: AT-dependent IIa inhibitory activity assay; type: biochemical; conditions: in presence of AT; read-out: Drug concentration required to inhibit 50% of coagulation factor activity (IC50, ng/mL) Ha (AT)
T2 construct: antithrombin (i.e., active coagulation factor IIa); purchased
Procedure, shortened: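 Sample preincubated with 1 IU/mL antithrombin 2 min at 37 °C, then 24 IU/mL FIIa 2 min, then 1.25 mM chromogenic substrate CS-01 (stock concentrations). OD405 rate relative to buffer control gave residual activity; IC50 from Hill-equation fit.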
T2 sequence (P01008 33-464): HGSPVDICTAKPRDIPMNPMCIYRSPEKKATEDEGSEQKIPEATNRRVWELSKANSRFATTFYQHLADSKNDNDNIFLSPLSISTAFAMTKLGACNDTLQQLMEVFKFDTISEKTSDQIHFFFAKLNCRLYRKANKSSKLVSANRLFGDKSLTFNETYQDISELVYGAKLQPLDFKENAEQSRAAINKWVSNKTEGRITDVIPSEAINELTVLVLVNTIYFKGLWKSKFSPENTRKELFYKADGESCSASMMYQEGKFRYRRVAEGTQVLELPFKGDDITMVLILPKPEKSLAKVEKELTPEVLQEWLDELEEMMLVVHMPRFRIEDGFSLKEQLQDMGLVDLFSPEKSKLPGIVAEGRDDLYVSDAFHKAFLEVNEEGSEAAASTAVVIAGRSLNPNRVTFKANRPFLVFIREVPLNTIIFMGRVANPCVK

mouse tail bleeding = experiment: Bleeding tendency detection (tail-clipping method); type: in vivo; conditions: mice, sc., high dose of equal multiple of the equivalent antithrombotic dose, vs LMWH
Description: Grouping and administration: Mice were randomly divided into 10 groups with 8 animals in each group. The experimental groups and the dose of the animals in each group were (1) natural saline (NS) control group; (2) LMWH 4.0 mg/kg group; (2) LMWH 20 mg/kg group; (3) LMWH 100 mg/Kg group; (4) A2 5 mg/kg group; (5) A2 25 mg/kg group; (6) A2 125 mg/kg group; (7) D1 5 mg/kg group; (8) D1 25 mg/Kg group; (10) D1 125 mg/kg group. The […] in each group were administered subcutaneously (sc.) into the back, and the dose volume was 10 mL/kg.
After 60 min of subcutaneous administration in each experimental group, the mice were placed in a mouse holder, and the tail tip was cut by 5 mm by tail-clipping method, and the mouse tail was immersed in 40 mL of purified water (37° C.) in the beaker. […] At 60 min, the beaker was placed for 60 min and then the absorbance of the solution (OD540) was detected by a UV spectrophotometer.
In addition, whole blood of healthy mice was taken, and the whole blood of different volumes of mice was added to 40 mL of purified water, stirred uniformly and allowed to stand for 60 min. The absorbance (OD540) of the solution was detected by the same method and the volume-absorbance curve was plotted and used as the standard curve for calculating the amount of bleeding. The amount of bleeding in each experimental group was calculated by the standard curve. […]

FXa (Homo sapiens) = target: T3, FXa (Homo sapiens); experiment: AT-dependent Xa inhibitory activity assay; type: biochemical; conditions: in presence of AT; read-out: Drug concentration required to inhibit 50% of coagulation factor activity (IC50, ng/mL) Xa (AT)
T3 construct: 8 μg/mL FXa solution; purchased
T3 sequence (P01008 33-464): as above
Procedure, shortened: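 Sample preincubated 1 min at 37 °C with antithrombin (1 IU/mL solution), then FXa (8 µg/mL solution) 1 min, then chromogenic substrate SXa-11 (1.25 mM solution). Rate of OD405 change gives residual FXa activity relative to buffer control; duplicates, IC50 fitted with a Hill equation.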

plasma = experiment: TT (thrombin time) clotting time; type: biochemical
human-controlled plasma [3] = experiment: Anticoagulant activity assay: APTT clotting time; type: biochemical
Procedure, shortened: (§1)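 Compounds in Tris-HCl buffer were serially diluted, and 10 μL was added to 90 μL human control plasma. PT and APTT clotting times were measured on an MC-4000 coagulometer following kit instructions.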

human-controlled plasma [4] = experiment: Anticoagulant activity assay: PT clotting time; type: biochemical
Procedure, shortened: as §1

FIIa (Homo sapiens) [5] = target: T4, FIIa (Homo sapiens); experiment: HC-II-dependent IIa inhibitory activity assay; type: biochemical; conditions: in presence of HC-II; read-out: Drug concentration required to inhibit 50% of coagulation factor activity (IC50, ng/mL) Ha (HC-II) (converted)
T4 construct: antithrombin (i.e., active coagulation factor IIa)
Description: HC-II-dependent IIa inhibitory activity assay: 30 μL of sample, control solution or Tris-HCl buffer (negative control) was added, 30 μL of 1 μM HCII solution was added, and incubated at 37° C. for 2 min; and then 30 μL of 20 NIH/mL FIIa was added, and incubated at 37° C. for 1 min; and finally 30 μL of pre-warmed 4.5 mM FIIa chromogenic substrate CS-01 (38) was added. OD405 was detected by a microplate reader and the IC50 value of FIIa inhibition of each sample was calculated.
Data processing: The average value of OD405 detected by the duplicated well was used as the detection value of the test sample and the reference of each concentration, and the slope of the linear fit between the detected value to the time value (the change rate of the absorbance value OD405/min) indicated enzymatic activity of coagulation factor. Taking the clotting factor activity of the negative control well as 100%, coagulation factor activity (percentage) in the presence of the test sample was calculated. The coagulation factor activity in the presence of the test sample was plotted against the concentration of the test sample, and fitted according to the following formula, to calculate the IC50 value: B=(IC50)^n/{(IC50)^n+[I]^n} […]
T4 sequence (P05546 20-499): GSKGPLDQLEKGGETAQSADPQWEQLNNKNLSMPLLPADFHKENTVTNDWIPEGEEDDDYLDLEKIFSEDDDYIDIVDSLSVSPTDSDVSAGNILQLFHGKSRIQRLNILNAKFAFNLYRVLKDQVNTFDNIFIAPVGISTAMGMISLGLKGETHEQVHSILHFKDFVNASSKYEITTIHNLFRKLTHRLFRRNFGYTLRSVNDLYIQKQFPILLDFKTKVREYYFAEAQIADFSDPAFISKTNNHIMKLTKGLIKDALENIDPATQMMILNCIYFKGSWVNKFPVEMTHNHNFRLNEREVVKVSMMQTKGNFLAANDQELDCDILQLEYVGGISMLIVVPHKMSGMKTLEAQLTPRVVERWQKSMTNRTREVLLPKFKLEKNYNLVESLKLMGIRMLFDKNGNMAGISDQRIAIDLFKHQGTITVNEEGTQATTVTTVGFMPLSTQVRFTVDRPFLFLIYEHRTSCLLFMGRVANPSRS

| IC50 (intrinsic factor Xase) [nM] | IC50 (FIIa (Homo sapiens) [2]) [nM] | IC50 (FXa (Homo sapiens)) [nM] | IC50 (FIIa (Homo sapiens) [5]) [nM] | SMILES | antithrombotic activity [1] | amount of bleeding (mouse tail bleeding) | Drug concentration required for multiplication of coagulation time (μg/mL) TT (plasma) | Drug concentration required for multiplication of coagulation time (μg/mL) APTT (human-controlled plasma [3]) [µg/mL] | Drug concentration required for multiplication of coagulation time (μg/mL) PT (human-controlled plasma [4]) |
| --- | --- | --- | --- | --- | --- | --- | --- | --- | --- |
| 23.8 | > 1970 | > 1970 |  | CC(=O)NC(CO)C(OC1OC(C(=O)O)C(OC2OC(COS(=O)(=O)O)C(OS(=O)(=O)O)C(OC3OC(C(=O)O)C(OC4OC(COS(=O)(=O)O)C(OS(=O)(=O)O)C(OC5OC(C(=O)O)=CC(OC6OC(C)C(OS(=O)(=O)O)C(O)C6OS(=O)(=O)O)C5O)C4NC(C)=O)C(OC4OC(C)C(OS(=O)(=O)O)C(O)C4OS(=O)(=O)O)C3O)C2NC(C)=O)C(OC2OC(C)C(OS(=O)(=O)O)C(O)C2OS(=O)(=O)O)C1O)C(OS(=O)(=O)O)C(O)COS(=O)(=O)O [Compound A2, L-Fuc2S4S-(α1,3)-ΔUA-(α1,3)-{D-GaNAc4S6S-(β1,4)-[L-Fuc2S4S-(α1,3)]-D-GlcA-(β1,3)}n+1-D-GalNAc4S6S-ol] | significant antithrombotic activity | significantly lower than that in LMWH administration group | # (>128 μg/mL) | 7.2 | # (>128 μg/mL) |
| 639 | > 3760 | > 3760 | 530 | CC(=O)N[C@H]1[C@H](O[C@@H]([C@H](O[C@@H]2O[C@@H](C)[C@@H](OS(=O)(=O)O)[C@@H](OS(=O)(=O)O)[C@@H]2O)[C@@H](O)CO)[C@H](O)C(=O)O)O[C@H](COS(=O)(=O)O)[C@H](OS(=O)(=O)O)[C@@H]1O[C@@H]1OC(C(=O)O)=C[C@H](O[C@@H]2O[C@@H](C)[C@@H](OS(=O)(=O)O)[C@@H](OS(=O)(=O)O)[C@@H]2O)[C@H]1O [Compound B1, L-Fuc3S4S-(α1,3)-L-ΔUA-(α1,3)-{D-GalNAc4S6S-(β1,4)-[L-Fuc3S4S-(α1,3)]-D-GlcA-(β1,3)}˜-D-GalNAc4S6S-(β1,4)-[L-Fuc3S4S-(α1,3)]-D-GlcA-ol] |  |  | # (>128 μg/mL) | 53.9 | # (>128 μg/mL) |
| 1260 | > 3760 | > 3760 | 615 | CC(=O)N[C@H]1[C@H](O[C@H]2[C@H](O[C@@H]3O[C@@H](C)[C@@H](OS(=O)(=O)O)[C@@H](OS(=O)(=O)O)[C@@H]3O)[C@@H](O)C(O)O[C@@H]2C(=O)O)O[C@H](COS(=O)(=O)O)[C@H](OS(=O)(=O)O)[C@@H]1O[C@@H]1OC(C(=O)O)=C[C@H](O[C@@H]2O[C@@H](C)[C@@H](OS(=O)(=O)O)[C@@H](OS(=O)(=O)O)[C@@H]2O)[C@H]1O (stereo partly drawn) [Compound B6, L-Fuc3S4S-(α1,3)-L-ΔUA-(α1,3)-{D-GaNAc4S6S-(β1,4)-[L-Fuc3S4S-(α1,3)]-D-GlcA-(β1,4)}˜-D-GalNAc4S6S-(β1,4)-[L-Fuc3S4S-(α1,3)]-D-GlcA] |  |  | # (>128 μg/mL) | 50.2 | # (>128 μg/mL) |
